Where two headings read alike, the source gives them in different places.
Tests used:
HeLa cells [1] = experiment: Cell cycle analysis (propidium iodide flow cytometry); format: cell-based, human; conditions: 24 h
Procedure: The HeLa cells were seeded in 12-well plates and treated with test compounds for the indicated time. Cells were harvested, washed with PBS, and incubated in propidium iodide (PI) solution containing 50 µg/mL propidium iodide, 0.1% sodium citrate, 0.2% Nonidet P-40, and 0.25 µg/mL RNase A (Nacalai Tesque) for 30 mi n in the dark.
Cellular DNA content was analyzed by fluorescence-activated cell sorting using a Cytomics FC500 (Beckman Coulter). […]

[2] = test system: intracellular microtubule networks in HeLa cells; experiment: alpha-tubulin immunofluorescence (interphase microtubules); format: cell-based, human; conditions: 6 h, at cytotoxic concentrations
Procedure: For α-tubulin, immunofluorescence was performed as described previously with several modifications2. Briefly, test compound–treated HeLa cells were fixed in 3.7% formalin for 1 min and methanol at -20 °C for 5 min sequentially, and permeabilized in 0.5% Triton X-100 in PBS for 5 min. After blocking with 0.5% BSA in PBS at room temperature for 30 min, cells were incubated sequentially with a primary antibody against α-tubulin (1:200, T9026; Sigma-Aldrich) in the blocking solution at 37 °C for 1 h, and with Alexa Fluor 488-conjugated secondary antibody (1:400, Life Technologies) at 37 °C for 40 min. After a quick rinse in PBS, DNA was counterstained with 0.5 µg/mL Hoechst 33342 in PBS at room temperature for 10 min. Images were analyzed using a fluorescence microscope (Delta Vision). […]
2 Futamura, Y. et al. Morphobase, an encyclopedic cell morphology database, and […]

[3] = test system: patient-derived malignant melanoma cells; set-up: method as in PMID 24695224; conditions: cited from earlier work
[4] = test system: Bcl-2 phosphorylation in HeLa cells; experiment: Detection of phosphorylated Bcl-2 (western blot); format: cell-based, human; conditions: 24 h, at the effective concentrations
Procedure: Western blot analysis for detection of phosphorylated Bcl-2 was performed as described previously with several modifications. Briefly, HeLa cells were treated with test compounds for 24 h, then harvested and lysed by sonication in a radioimmunoprecipitation assay buffer (RIPA) buffer containing 25 mM 4-(2-hydroxyethyl)-1-piperazineethanesulfonic acid (HEPES; pH 7.8), 0.5 M NaCl, 5 mM ethylenediaminetetraacetic acid (EDTA), 1.5% Triton-X-100, 1.0% sodium deoxycholate, and 0.1% sodium dodecyl sulfate (SDS), supplemented with a protease inhibitor cocktail (Roche). Samples were subjected to SDS-PAGE and transferred to a PVDF membrane. The membrane was incubated with a primary antibody against Bcl-2 (1:500, #M0887; DAKO) and a horseradish peroxidase-labeled secondary antibody (1:2000, 170-6516; Bio-Rad) in sequence. Then, they were visualized with Fusion Solo S using the SuperSignal West Pico Chemiluminescence Substrate. Phosphorylated Bcl-2 was detected on the upper side of unphosphorylated Bcl-2 by the mobility shift. As a loading control, α-tubulin was detected in the same samples by using a primary antibody against α-tubulin (1:2000, T9026; Sigma-Aldrich).

[5] = test system: 87 enzymes, GPCRs, kinases, ion channels, and transporters; set-up: method as in PMID 24695224; conditions: at 10 μM; with few exceptions; cited from earlier work
porcine tubulin = molecular target: T1, porcine tubulin (Sus scrofa, UniProt P02550+P02554); experiment: In vitro tubulin polymerization assay; format: biochemical; conditions: dose-dependent
T1 construct: purchased Cytoskeleton
T1 sequence (P02550 whole entry): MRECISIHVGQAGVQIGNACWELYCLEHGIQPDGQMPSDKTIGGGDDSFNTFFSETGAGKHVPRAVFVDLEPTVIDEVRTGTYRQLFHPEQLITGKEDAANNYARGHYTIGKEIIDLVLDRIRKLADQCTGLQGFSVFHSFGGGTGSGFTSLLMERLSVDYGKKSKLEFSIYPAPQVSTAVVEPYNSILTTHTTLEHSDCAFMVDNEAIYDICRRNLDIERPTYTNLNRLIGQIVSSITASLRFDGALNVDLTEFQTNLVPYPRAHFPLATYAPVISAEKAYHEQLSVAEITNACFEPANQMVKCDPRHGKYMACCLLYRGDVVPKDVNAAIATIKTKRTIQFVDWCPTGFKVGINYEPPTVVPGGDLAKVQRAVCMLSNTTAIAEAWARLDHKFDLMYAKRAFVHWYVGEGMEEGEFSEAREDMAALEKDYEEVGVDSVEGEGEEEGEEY
T1 sequence (P02554 whole entry): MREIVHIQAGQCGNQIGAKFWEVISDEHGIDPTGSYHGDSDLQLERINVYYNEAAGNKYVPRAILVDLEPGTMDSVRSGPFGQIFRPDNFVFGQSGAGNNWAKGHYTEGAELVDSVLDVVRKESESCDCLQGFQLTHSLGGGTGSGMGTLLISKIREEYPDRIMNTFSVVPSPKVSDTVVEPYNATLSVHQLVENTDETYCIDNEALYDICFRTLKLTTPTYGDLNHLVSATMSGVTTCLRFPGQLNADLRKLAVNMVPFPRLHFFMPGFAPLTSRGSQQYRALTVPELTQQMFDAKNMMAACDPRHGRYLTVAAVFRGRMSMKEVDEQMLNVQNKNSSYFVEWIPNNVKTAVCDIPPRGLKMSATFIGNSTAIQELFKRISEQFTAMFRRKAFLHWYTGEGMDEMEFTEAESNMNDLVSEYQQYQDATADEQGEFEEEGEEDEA
Procedure: In vitro tubulin polymerization assay was performed using a tubulin polymerization assay kit (Cytoskeleton) according to the manufacturer’s instructions. Briefly, lyophilized porcine tubulin was solubilized to a final concentration of 2 mg/mL in reaction buffer containing 80 mM piperazine-N,N′-bis(2-ethanesulfonic acid) (PIPES; pH 6.9), 2 mM MgCl2, 0.5 mM ethylene glycol tetraacetic acid (EGTA), 1 mM guanosine-5′-triphosphate (GTP), 10 μM fluorescent reporter, and 20% glycerol, and kept at 4 °C. Compounds (100 × DMSO stock solutions) were added to prewarmed half-area 96-well black plates. Cold tubulin solution was added to the wells. The plate contents were mixed by shaking, and fluorescence (Ex 350 nm, Em 435 nm) was read every minute for 1 h using a fluorescence microplate reader (Molecular Devices).

[6] = test system: other members of the Nudix protein family, nucleoside triphosphate pyrophosphatases; set-up: method as in PMID 24695224; conditions: cited from earlier work
[7] = Cell death assay (WST-8) in HeLa cells; format: cell-based, human; conditions: human, HeLa cells (cervical cancer); 72 h, WST-8; read-out: cytotoxicity IC50 against HeLa cells
Procedure: (§1) Human cancer cell lines HeLa (cervical cancer), MIA PaCa-2 (pancreatic cancer), A431 (epidermoid carcinoma), and human embryonic kidney derived cell line HEK293T were cultured in Dulbecco’s Modified Eagle’s Medium (DMEM; Invitrogen) containing 10% fetal bovine serum (FBS), penicillin G (50 units/mL) and streptomycin (50 µg/mL). Human cancer cell lines Panc-1 (pancreatic cancer) and Jurkat (T cell lymphoma) were cultured in RPMI (Gibco) containing 10% FBS, penicillin G (50 units/mL) and streptomycin (50 µg/mL). Human osteosarcoma cell line MG-63, mouse embryonic fibroblast NIH3T3 cells and its transformant NIH3T3/KRAS cells1 were cultured in DMEM (Sigma-Aldrich) containing 10% calf serum, glutamine (0.3 g/L), penicillin G (50 units/mL), and streptomycin (50 µg/mL). All cell lines were incubated at 37 °C in a humidified atmosphere containing 5% CO2.
(§2) The cells were seeded in 96-well plates, cultured overnight, and treated with test compounds for the indicated time. Subsequently, cell viability was measured by the WST-8 assay, using Cell Count Reagent SF (Nacalai Tesque) according to the manufacturer ’s instructions, with the measurement of absorbance set at 450 nm on the ARVO SX 1420 Multilabel Counter (Wallac). […]

[8] = test system: nuclear 53BP1 foci in HeLa cells; experiment: 53BP1 foci immunofluorescence (DNA damage); format: cell-based, human; conditions: 24 h, only at the higher concentrations (100-300 μM)
Procedure: For 53BP1, test compound–treated HeLa cells were fixed in 3% formalin in PBS containing 0.1% Triton X-100 for 15 min and permeabilized in 0.5% Triton X-100 for 5 min. After blocking with 10% FBS and 0.1% Triton X-100 in PBS for 1 h, cells were incubated sequentially with a primary antibody against 53BP1 (1:600, sc-22760; Santa Cruz Biotechnology) in blocking solution at 37 °C for 1 h and with Alexa Fluor 568-conjugated secondary antibody (1:400, Life Technologies) under the same condition.
After a quick rinse in PBS, DNA was counterstained with 0.5 µg/mL Hoechst 33342 (Sigma-Aldrich) in PBS at room temperature for 10 min. Images were analyzed on a fluorescence microscope (Delta Vision). […]

[9] = molecular target: T2, His-tagged human recombinant MTH1 protein (Homo sapiens, UniProt P36639); experiment: MTH1 enzyme assay (PPiLight pyrophosphate detection); format: biochemical; conditions: MTH1 2 nM
T2 construct: His; purchased ProSpec
Procedure: An MTH1 enzyme assay was performed as described previously with minor modifications. Briefly, test compounds were dissolved in an assay buffer [100 mM Tris-acetate, 40 mM NaCl, 10 mM Mg(OAc)2, 0.005% Tween-20, and 2 mM dithiothreitol (DTT), pH 7.5] containing His-tagged human recombinant MTH1 protein (2 nM; ProSpec). […] Relative MTH1 activity was measured by monitoring the pyrophosphate (PPi) generated through MTH1-catalyzed nucleotide triphosphate hydrolysis. The luciferase-mediated luminescence signal was recorded for 30 min using a luminometer (Molecular Devices).

HeLa cells [10] = experiment: Cell death assay (WST-8) in HeLa cells; format: cell-based, human
Procedure: as §1, §2

[11] = molecular target: T3, His-tagged human recombinant DCTPP1 protein (Homo sapiens, UniProt Q9H773); experiment: DCTPP1 enzyme assay; format: biochemical; conditions: at 100 μM
T3 construct: His; purchased ATGen
T3 sequence (Q9H773 1-170): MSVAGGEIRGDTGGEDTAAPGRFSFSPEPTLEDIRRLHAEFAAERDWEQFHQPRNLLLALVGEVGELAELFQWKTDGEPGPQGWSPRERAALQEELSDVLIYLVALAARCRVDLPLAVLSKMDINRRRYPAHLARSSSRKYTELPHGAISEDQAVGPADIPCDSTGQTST
Procedure: Likewise, the enzymatic activities of ITPA and DCTPP1 were measured using a PPiLight Inorganic Pyrophosphate Assay kit. For the ITPA enzyme assay, we used ITPA assay buffer (100 mM Tris-acetate, 50 mM Mg(OAc)2, 0.005% Tween-20, and 2 mM DTT, pH 7.5), His-tagged human recombinant ITPA protein (5 nM; ProSpec), and ITP (25 μM). For the DCTPP1 enzyme assay, we used DCTPP1 assay buffer (100 mM Tris-acetate, 100 mM NaCl, 10 mM Mg(OAc)2, 0.005% Tween-20, and 2 mM DTT, pH 7.5), His-tagged human recombinant DCTPP1 protein (50 nM; ATGen), and deoxycytidine triphosphate (dCTP; 50 μM).
To exclude false positive compounds that inhibit PPi detection, the effects of test compounds on 10 μM Na4P2O7-induced luciferase activity were examined.

[12] = test system: 8-oxo-dG levels in DNA of HeLa cells; experiment: 8-oxo-dG immunofluorescence; format: cell-based, human; conditions: 20 h, NPD compounds 100 μM, TH287 3 and 10 μM
Procedure: as §1, with “CO2. […]” for “CO2.”
The HeLa cells were seeded on glass coverslips in 12-well plates, cultured overnight, and treated with test compounds for the indicated time. For 8-oxo-dG, cells were fixed sequentially in 3.7% formalin for 10 min and methanol at -20 °C for 10 min, and then permeabilized in 0.5% Triton X-100 in PBS at room temperature for 5 min. After blocking with 0.5% BSA in PBS at room temperature for 30 min, cells were incubated sequentially with a primary antibody against 8-oxo-dG (5 µg/mL, MOG-020; Japan Institute for the Control of Aging) and with Alexa Fluor 488-conjugated secondary antibody (1:400, Life Technologies) under the same conditions. After a quick rinse in PBS, DNA was counterstained with 0.1 µg/mL 4′,6-diamidino-2-phenylindole (DAPI) in PBS at room temperature for 10 min. Images were analyzed with a fluorescence microscope (BX60, Olympus).

[13] = substrate 2-OH-dATP (8.3 μM), read-out: IC50 of MTH1 inhibitory activity, 2-OH-dATP
[14] = substrate 8-oxo-dGTP (13.2 μM), read-out: IC50 of MTH1 inhibitory activity, 8-oxo-dGTP

| IC50 [9, 13] [µM] | IC50 [9, 14] [µM] | Structure (SMILES) | population of HeLa cells in G2/M phase (HeLa cells [1]) | effect on intracellular microtubule networks [2] | Bcl-2 phosphorylation [4] | effect on tubulin polymerization in vitro (porcine tubulin) | inhibition of other Nudix family members and nucleoside triphosphate pyrophosphatases [6] | effect on enzymatic activity of DCTPP1 [11] | also measured |
| --- | --- | --- | --- | --- | --- | --- | --- | --- | --- |
| 6.7 | 3.3 | CC(C)OCCCNc1ncnc2[nH]cnc12 [NPD15095] |  |  |  |  |  |  |  |
| 0.75 ± 0.4 | 0.32 ± 0.04 | COc1ccc2nc3c(c(C)nn3C)c(NCCOCCO)c2c1 [SCH51344, reference compound] |  |  |  |  |  | slightly inhibited | IC50 (HeLa cells [10]): 5.5 µM |

Second part, the compound before the results:

| Structure (SMILES) | IC50 [9, 13] [µM] | IC50 [9, 14] [µM] | population of HeLa cells in G2/M phase (HeLa cells [1]) | effect on intracellular microtubule networks [2] | Bcl-2 phosphorylation [4] | effect on tubulin polymerization in vitro (porcine tubulin) | inhibition of other Nudix family members and nucleoside triphosphate pyrophosphatases [6] | effect on enzymatic activity of DCTPP1 [11] | also measured |
| --- | --- | --- | --- | --- | --- | --- | --- | --- | --- |
| Nc1nc(NC2CC2)cc(-c2cccc(Cl)c2Cl)n1 [TH588] |  |  | increased the population of HeLa cells in G2/M phase | disrupted intracellular microtubule networks | induced Bcl-2 phosphorylation | inhibited tubulin polymerization | did not inhibit |  | tumor growth in mouse xenograft model [3]: suppressed tumor growth; effect against 87 enzymes, GPCRs, kinases, ion channels, and transporters [5]: little effect |
| Cn1cnc2c(NCc3ccco3)ncnc21 [NPD8880] | > 1000 | > 1000 |  |  |  |  |  |  | IC50 at 72 h [7]: 650 µM; DNA damage (nuclear 53BP1 foci formation) [8]: induced DNA damage |
| C[C@H](Oc1cc(-c2cnn(C3CCNCC3)c2)cnc1N)c1c(Cl)ccc(F)c1Cl [(S)-crizotinib, reference compound] |  |  |  |  |  |  |  | slightly inhibited | IC50 (HeLa cells [10]; 72 h, WST-8, read-out: cytotoxicity IC50 against HeLa cells): 13 µM |
| CNc1cc(-c2cccc(Cl)c2Cl)nc(N)n1 [TH287, reference compound] | 0.0036 ± 0.0017 | 0.0022 ± 0.0003 | increased the population of HeLa cells in G2/M phase | disrupted intracellular microtubule networks | induced Bcl-2 phosphorylation | inhibited tubulin polymerization | did not inhibit |  | accumulation of 8-oxo-dG [12]: increased 8-oxo-dG levels |

From PMC4876372 (Scientific Reports, 2016)
